Where two headings read alike, the source gives them in different places. Where no end group is shown, it is not given here. [ ]: non-standard residue; d: D form. The star is where a group is joined. Biotin = O=C1N[C@H]2[C@H](CS[C@H]2CCCCC(=O)*)N1; pY = N[C@@H](Cc1ccc(OP(=O)(O)O)cc1)C(=O)O

The results in this text go back to patent US7932022B2, “Dual-labeled molecular constructs for detection of biochemical reactions” (BioArray Solutions, Ltd., priority 2002, dated 2011).

In assay [1] the test system is phosphorylated peptide-specific monoclonal mouse IgG antibodies. The note with it: three-antibody detection. An excerpt:
After coupling, the particles were washed by using PBST. Then, all of the peptide-functionalized beads were combined into a test tube for assembly of microparticle array according to known prior art methods, such as LEAPS, and direct disposition assembly method previously described in Provisional Application Ser. No. 60/343,621, filed Dec. […] The assembled microparticle array is blocked by using 1% BSA in PBST. For immunodetection of phosphorylated peptides on the array, the chip is incubated with monoclonal antibodies specific for the phosphorylation modification. The incubation is carried out in a humid chamber for binding of the antibodies to the phosphorylated peptides. The unbound antibodies are washed away by using PBST. For the purpose of signal amplification, the chip is incubated with secondary antibodies specific for the primary monoclonal antibodies bound on the arrays. The signal may be further amplified by incubation of the chips with fluorescent-labeled antibodies specific for the secondary antibodies. After washing with PBST, the array is examined by using a fluorescent microscope according to known prior art methods, such as the READ assays.
The peptide-functionalized microparticles are assembled into a particle array. The chip was incubated with phosphorylated peptide-specific monoclonal mouse IgG antibodies followed by incubation with mouse IgG-specific secondary antibodies, and then Cy5-labeled third antibodies for detection using a fluorescent microscope. Fluorescence was detected by Cy5 signals. […] The error bars in FIG. 22 represent standard deviation of the respective mean intensities.

The test system of assay [2] is monoclonal antibodies specific for the phosphorylation modification. The note with it: tyramide detection. An excerpt: […]
The subject of assay [3] is phosphorylated peptide-specific monoclonal mouse IgG antibodies. The note with it: three-antibody detection, six bead types.

Turning to “Biotin-CEGPWLEEEEEA[pY]GWMDFK-Biotin [Peptide-P-2]”, the entries for the “Cy5 signal intensity at 1000 ms integration” value (from here on “Cy5 signal intensity”) in assay [1] and in assay [3] were 15,500 units and “approximately 14,000 units”, respectively. Besides, the “FITC signal intensity at 1000 ms integration” value (shortened to “FITC signal intensity”) in assay [2] is 15,000 units.

Turning to “Biotin-CKVEKIGEGT[pY]GVVYK [Peptide-P-1]”, in assay [3], the “Cy5 signal intensity” value is “approximately 14,000 units”.

As for Biotin-CRRLIEDAE[pY]AARGK [Peptide-P-3], in assay [3], the “Cy5 signal intensity” value was “approximately 14,000 units”.

With Biotin-KVEKIGEGTYGVVYK [Ty-1], the “Cy5 signal intensity” value is listed as “approximately 1400 units” in assay [1] and “approximately 1000 units” in assay [3]. The “FITC signal intensity” value in assay [2] is given as “approximately 700 units”.

As for Biotin-KVEKIGEGT[pY]GVVYK [Ty-P-1], the entries for the “Cy5 signal intensity” value in assay [1] and in assay [3] were 15,000 units and “approximately 14,000 units”, respectively. For the same substance, the “FITC signal intensity” value in assay [2] is on record as 11,000 units.
